Measured values: ChEMBL document CHEMBL5715954, “Silencing c-Myc translation as a therapeutic strategy through targeting PI3Kδ and CK1ε in hematological malignancies” (Blood, 2017)

Columns and labels:
Parameters in all cases: scale not given: the % may be the effect or the level left
[1] = target: T1, cGMP-dependent protein kinase 1 (Homo sapiens) (UniProt Q13976); experiment: Inhibition of human PKG1a assessed as enzyme activity at 1 uM using LRRASLG as substrate preincubated for 20 mins followed by [gamma-33P]-ATP addition and measured after 120 mins by radiometric Hot-SpotSM Kinase assay relative to control
T1 sequence (whole entry): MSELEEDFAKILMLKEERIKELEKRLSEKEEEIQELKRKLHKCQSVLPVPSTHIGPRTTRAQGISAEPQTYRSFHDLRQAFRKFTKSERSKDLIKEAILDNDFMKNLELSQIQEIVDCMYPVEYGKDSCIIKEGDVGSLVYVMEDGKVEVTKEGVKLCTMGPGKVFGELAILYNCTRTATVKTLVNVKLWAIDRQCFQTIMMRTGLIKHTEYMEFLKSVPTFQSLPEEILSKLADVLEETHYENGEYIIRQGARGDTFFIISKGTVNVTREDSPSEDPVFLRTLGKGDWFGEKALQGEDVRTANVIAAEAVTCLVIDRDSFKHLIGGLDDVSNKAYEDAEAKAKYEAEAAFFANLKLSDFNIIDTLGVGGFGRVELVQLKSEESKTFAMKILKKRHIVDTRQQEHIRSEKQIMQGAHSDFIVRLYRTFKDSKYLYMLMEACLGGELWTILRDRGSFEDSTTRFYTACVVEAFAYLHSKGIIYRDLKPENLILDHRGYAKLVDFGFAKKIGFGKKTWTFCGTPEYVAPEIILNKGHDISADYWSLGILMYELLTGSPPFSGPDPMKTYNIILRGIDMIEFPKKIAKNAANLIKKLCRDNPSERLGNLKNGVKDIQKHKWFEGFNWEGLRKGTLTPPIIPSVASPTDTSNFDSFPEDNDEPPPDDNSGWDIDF

[2] = target: Serine/threonine-protein kinase OSR1 (Homo sapiens) (UniProt O95747); experiment: Inhibition of human OSR1 assessed as enzyme activity at 1 uM using RRHYYYDTHTNTYYLRTFGHNTRR as substrate preincubated for 20 mins followed by [gamma-33P]-ATP addition and measured after 120 mins by radiometric Hot-SpotSM Kinase assay relative to control
Chain of Serine/threonine-protein kinase OSR1 (Homo sapiens) (O95747 2-527 limits assumed): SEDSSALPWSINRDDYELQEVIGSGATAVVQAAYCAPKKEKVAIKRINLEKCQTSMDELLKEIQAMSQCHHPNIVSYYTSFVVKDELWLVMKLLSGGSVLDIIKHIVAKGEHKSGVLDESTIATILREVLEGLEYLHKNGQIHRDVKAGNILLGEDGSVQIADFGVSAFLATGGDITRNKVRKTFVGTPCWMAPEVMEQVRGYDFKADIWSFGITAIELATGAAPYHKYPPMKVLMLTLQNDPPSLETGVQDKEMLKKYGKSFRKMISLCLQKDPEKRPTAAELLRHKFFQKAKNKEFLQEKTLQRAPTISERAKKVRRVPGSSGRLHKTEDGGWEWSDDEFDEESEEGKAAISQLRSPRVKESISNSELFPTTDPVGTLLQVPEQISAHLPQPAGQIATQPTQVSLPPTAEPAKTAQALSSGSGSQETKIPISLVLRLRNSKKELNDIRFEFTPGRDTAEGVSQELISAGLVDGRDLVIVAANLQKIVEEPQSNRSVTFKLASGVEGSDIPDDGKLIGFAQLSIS

[3] = target: T2, Serine/threonine-protein kinase TAO3 (Homo sapiens) (UniProt Q9H2K8); experiment: Inhibition of human TAOK3 assessed as enzyme activity at 1 uM using myelin basic protein as substrate preincubated for 20 mins followed by [gamma-33P]-ATP addition and measured after 120 mins by radiometric Hot-SpotSM Kinase assay relative to control
T2 sequence (whole entry): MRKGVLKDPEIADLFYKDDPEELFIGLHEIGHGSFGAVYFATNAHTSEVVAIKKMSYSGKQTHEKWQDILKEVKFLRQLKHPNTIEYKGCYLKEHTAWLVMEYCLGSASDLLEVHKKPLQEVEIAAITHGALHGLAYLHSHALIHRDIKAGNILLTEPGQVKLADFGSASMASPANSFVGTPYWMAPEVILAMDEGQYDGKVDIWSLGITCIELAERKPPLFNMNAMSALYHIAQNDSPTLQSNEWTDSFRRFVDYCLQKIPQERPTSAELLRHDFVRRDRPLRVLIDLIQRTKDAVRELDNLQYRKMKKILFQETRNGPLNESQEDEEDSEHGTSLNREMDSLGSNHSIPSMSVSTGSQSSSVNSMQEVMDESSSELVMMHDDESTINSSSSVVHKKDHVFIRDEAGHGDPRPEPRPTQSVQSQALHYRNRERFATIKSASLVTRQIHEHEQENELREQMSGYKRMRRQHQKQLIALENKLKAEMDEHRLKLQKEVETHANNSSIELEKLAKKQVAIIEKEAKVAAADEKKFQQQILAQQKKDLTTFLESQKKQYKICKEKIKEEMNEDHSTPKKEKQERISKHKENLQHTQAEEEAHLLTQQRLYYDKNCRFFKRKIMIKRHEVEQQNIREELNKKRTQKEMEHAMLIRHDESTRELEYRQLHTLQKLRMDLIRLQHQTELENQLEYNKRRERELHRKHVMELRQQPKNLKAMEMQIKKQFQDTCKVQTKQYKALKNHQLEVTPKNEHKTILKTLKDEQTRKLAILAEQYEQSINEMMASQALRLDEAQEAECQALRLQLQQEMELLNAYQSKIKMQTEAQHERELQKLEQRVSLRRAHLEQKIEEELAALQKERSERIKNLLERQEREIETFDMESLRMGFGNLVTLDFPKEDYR

[4] = target: T3, Serine/threonine-protein kinase 4 (Homo sapiens) (UniProt Q13043); experiment: Inhibition of human MST1 assessed as enzyme activity at 1 uM using KKSRGDYMTMQIG as substrate preincubated for 20 mins followed by [gamma-33P]-ATP addition and measured after 120 mins by radiometric Hot-SpotSM Kinase assay relative to control
T3 sequence (whole entry): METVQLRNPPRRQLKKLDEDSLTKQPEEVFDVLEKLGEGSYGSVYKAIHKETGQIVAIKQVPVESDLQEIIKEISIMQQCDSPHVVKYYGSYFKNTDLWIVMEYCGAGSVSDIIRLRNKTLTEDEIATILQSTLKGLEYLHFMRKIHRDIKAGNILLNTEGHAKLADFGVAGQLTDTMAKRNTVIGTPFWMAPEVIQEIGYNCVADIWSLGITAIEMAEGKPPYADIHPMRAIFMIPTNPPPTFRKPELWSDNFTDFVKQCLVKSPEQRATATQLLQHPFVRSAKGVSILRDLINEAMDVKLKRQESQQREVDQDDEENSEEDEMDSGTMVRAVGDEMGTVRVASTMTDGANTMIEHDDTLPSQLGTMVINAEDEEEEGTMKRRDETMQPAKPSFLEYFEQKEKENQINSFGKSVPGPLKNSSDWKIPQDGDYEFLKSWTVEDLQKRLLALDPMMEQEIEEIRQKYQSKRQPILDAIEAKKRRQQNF

[5] = target: Serine/threonine-protein kinase/endoribonuclease IRE1 (Homo sapiens) (UniProt O75460); experiment: Inhibition of human ERN1 assessed as enzyme activity at 1 uM using myelin basic protein as substrate preincubated for 20 mins followed by [gamma-33P]-ATP addition and measured after 120 mins by radiometric Hot-SpotSM Kinase assay relative to control
Chain of Serine/threonine-protein kinase/endoribonuclease IRE1 (Homo sapiens) (O75460 19-977 limits assumed): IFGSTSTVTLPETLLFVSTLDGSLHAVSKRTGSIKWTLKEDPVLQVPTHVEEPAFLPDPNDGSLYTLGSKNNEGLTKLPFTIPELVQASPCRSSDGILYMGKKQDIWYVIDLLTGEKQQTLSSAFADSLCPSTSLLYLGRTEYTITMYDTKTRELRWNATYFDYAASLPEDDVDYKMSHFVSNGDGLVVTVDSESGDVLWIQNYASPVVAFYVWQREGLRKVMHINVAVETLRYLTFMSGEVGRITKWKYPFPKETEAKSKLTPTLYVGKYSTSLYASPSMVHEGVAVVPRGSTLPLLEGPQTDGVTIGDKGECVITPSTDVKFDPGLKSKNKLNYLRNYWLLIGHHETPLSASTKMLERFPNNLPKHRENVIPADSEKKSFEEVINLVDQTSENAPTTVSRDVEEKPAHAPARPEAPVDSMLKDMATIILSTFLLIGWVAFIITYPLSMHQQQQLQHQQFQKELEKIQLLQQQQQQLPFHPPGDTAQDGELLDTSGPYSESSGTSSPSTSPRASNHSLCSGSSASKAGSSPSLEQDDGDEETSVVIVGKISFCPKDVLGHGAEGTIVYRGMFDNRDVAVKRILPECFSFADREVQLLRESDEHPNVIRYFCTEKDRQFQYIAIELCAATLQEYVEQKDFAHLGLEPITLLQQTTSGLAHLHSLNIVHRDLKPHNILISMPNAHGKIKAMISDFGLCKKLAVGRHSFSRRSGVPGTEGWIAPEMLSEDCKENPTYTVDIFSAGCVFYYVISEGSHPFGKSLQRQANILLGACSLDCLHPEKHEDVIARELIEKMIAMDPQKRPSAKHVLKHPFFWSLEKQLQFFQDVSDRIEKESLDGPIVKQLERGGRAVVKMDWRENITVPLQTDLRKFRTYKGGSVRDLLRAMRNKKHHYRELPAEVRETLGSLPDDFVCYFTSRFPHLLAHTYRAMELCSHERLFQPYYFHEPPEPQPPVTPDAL

[6] = target: Platelet-derived growth factor receptor beta (Homo sapiens) (UniProt P09619); experiment: Inhibition of human PDGFRb assessed as enzyme activity at 1 uM using poly[Glu:Tyr] (4:1) as substrate preincubated for 20 mins followed by [gamma-33P]-ATP addition and measured after 120 mins by radiometric Hot-SpotSM Kinase assay relative to control
Chain of Platelet-derived growth factor receptor beta (Homo sapiens) (P09619 whole entry): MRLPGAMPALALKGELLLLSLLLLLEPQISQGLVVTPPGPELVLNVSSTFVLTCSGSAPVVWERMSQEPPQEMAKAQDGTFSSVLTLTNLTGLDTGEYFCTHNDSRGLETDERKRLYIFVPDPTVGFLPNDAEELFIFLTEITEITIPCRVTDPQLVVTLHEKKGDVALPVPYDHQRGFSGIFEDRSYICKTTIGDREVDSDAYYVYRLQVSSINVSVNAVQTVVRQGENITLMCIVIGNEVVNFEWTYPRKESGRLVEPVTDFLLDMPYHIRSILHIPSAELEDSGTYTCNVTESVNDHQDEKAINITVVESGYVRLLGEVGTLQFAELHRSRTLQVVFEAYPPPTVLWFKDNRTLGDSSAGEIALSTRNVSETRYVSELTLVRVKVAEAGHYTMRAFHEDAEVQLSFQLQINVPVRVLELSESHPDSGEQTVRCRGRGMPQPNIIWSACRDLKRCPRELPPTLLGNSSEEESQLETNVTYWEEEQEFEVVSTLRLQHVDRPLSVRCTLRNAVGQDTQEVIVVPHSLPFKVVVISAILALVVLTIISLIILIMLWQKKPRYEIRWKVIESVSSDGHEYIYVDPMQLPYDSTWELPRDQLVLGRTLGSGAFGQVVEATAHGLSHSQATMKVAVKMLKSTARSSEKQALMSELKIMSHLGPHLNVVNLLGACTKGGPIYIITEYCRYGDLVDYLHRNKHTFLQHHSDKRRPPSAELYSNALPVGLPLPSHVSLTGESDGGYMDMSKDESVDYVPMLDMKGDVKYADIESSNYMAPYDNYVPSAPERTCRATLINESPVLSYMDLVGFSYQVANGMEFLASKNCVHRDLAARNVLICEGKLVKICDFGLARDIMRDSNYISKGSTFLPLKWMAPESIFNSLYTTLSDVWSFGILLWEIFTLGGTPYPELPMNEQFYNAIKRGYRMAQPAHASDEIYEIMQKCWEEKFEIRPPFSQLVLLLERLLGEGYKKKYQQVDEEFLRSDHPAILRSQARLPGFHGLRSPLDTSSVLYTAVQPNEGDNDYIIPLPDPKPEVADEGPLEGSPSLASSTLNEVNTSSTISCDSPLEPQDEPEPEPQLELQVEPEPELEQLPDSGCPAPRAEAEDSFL

CC[C@H](Nc1ncnc2[nH]cnc12)c1nc2cccc(F)c2c(=O)n1-c1ccccc1
Activity [1]: 105%
Activity [2]: 93.2%
Activity [3]: 98.6%
Activity [4]: 89.8%
Activity [5]: 96.4%
Activity [6]: 102%

C[C@H](Nc1ncnc2nc[nH]c12)c1cc2cccc(Cl)c2c(=O)n1-c1ccccc1
Activity [1]: 109%
Activity [2]: 97.1%
Activity [3]: 106%
Activity [4]: 94.1%
Activity [5]: 97.3%
Activity [6]: 97.8%

CC(C)Oc1ccc(-c2nn([C@@H](C)c3oc4ccc(F)cc4c(=O)c3-c3cccc(F)c3)c3ncnc(N)c23)cc1F [UMBRALISIB]
Activity [1]: 105%
Activity [2]: 95.5%
Activity [3]: 106%
Activity [4]: 95.1%
Activity [5]: 91.6%
Activity [6]: 104%
